Data taken from patent US10980777B2, “Indole derivatives as histone demethylase inhibitors” (Istituto Europeo di Oncologia S.r.l., priority 2017, dated 2021).
Structures can show the parent of a compound that is named as a salt. Where two headings read alike, the source gives them in different places.

Experiments:
[1] = biological target: T1, human recombinant KDM1A/CoREST protein (Homo sapiens, UniProt O60341); assay: Assay of enzyme inhibition of KDM1A (LSD1), TR-FRET; assay type: biochemical
T1 construct: made in house; host or cells: E. coli
Description: 2.1 Assay of Enzyme Inhibition of KDM1A (LSD1)
The KDM1A inhibiting activity was determined using a TR-FRET assay (time resolved fluorescence resonance energy transfer, Lance® Ultra Demethylase technology (Perkin Elmer, Waltham, Mass., USA)), which comprises a Europium chelate donor dye (TRF0404, Perkin Elmer, Waltham, Mass., USA) together with ULight™ (TR0102, Perkin Elmer, Waltham, Mass., USA), a small molecular weight acceptor dye with a red-shifted fluorescent emission, and a biotinylated 21 amino acids histone H3-derived monomethylated peptide (H3K4me) [Lys(Me1)4]-Histone H3 (1-21)-GGK(biotin), (64355, Anaspec, Fremont, Calif., USA) as substrate. The intensity of the light emission is proportional to the level of biotinylated reaction product. The complex of human recombinant KDM1A/CoREST protein was produced in E. coli as separate proteins and co-purified as previously described.(Forneris, F. et al. Trends Biochem, Sci, 2008, 33, 181-189) (Forneris, F. et al. J. Biol. Chem. 2007, 282, 20070-20074).
Demethylase Assay conditions: 0.25 nM KDM1A/CoREST protein and compound in 100% DMSO were added in a final volume of 48 μL assay buffer (Tris HCl 50 mM pH 8.8, NaCl 50 mM, DTT 1 mM, Tween-20 0.01% (by volume)) to each well of a 96 well half area flat bottom white plate (3693 Costar, Sigma-Aldrich, St. Louis, M, USA).
Demethylase reaction was started by the addition of 50 nM histone H3K4 monomethylated. After 20 min at RT, 300 μM tranylcypromine (P8511-1G, Sigma-Aldrich, St. Louis, Mo. 63103) was added to stop the reaction.
Detection step conditions: 10 μL of the assay mixture was transferred from the original plate into a 384 well white plate (6007290 OptiPlate™, Perkin Elmer, Waltham, Mass., USA) and 10 μL of the detection Mix containing 2 nM Eu-antibody and 10 nM U-Light-Streptavidin in 1× Lance Detection Buffer (TRF0404, TR0102, CR97100, Perkin Elmer, Waltham, Mass., USA). The resulting mixture was incubated in the dark for 1 h at RT. Then, TR-FRET signal was read by a fluorimeter (Infinite® F200, Tecan, Männedorf, Switzerland) (Excitation 320 nm, Emission 665 nm and 620 nm, delay time 50 μs, window time 100 μs).
IC50 determination: The inhibitor concentrations ranged from 0.025 to 500 μM (serial 1:3 dilutions). The IC50 was calculated using GraphPad Software.

[2] = test system: Human leukemia MV4-11 cells; assay: Cell growth, CellTiter-Fluor cell viability assay, MV4-11; assay type: cell-based; details: 48 h incubation, read-out: IC50 against human leukemia MV4-11 cells
Source text: (§1) CellTiter-Flor® (Promega) is as a nonlytic, single-reagent-addition fluorescence assay that measures the relative number of living cells in a culture population after experimental manipulation. The CellTiter-Fluor™ Cell Viability Assay measures the conserved and constitutive protease activity within live cells and therefore acts as a marker for cell viability.
(§2) Human leukemia MV4-11 cells, (obtained from the Deutsche Sammlung von Mikroorganismen und Zellkulturen, ACC 102) or NB4 cells, (obtained from the Deutsche Sammlung von Mikroorganismen und Zellkulturen) in exponential growth, were incubated for 48 h with different concentrations of the inhibitors. After 48 h a volume of CellTiter-Fluor® Reagent equal to one fifth of volume of cell culture medium was added. The content was mixed and incubates for at least 90 min at 37° C. degree to obtain a stable signal. The fluorescence was recorded using an excitation wavelength of 360 nm and an emission at 535 nm. The IC50 was calculated using GraphPad Software.

[3] = test system: human leukemia NB4 cells; assay: Cell growth, CellTiter-Fluor cell viability assay, NB4; assay type: cell-based; details: NB-4, 48 h incubation, read-out: IC50 against human leukemia NB4 cells
Source text: as §1, §2

[4] = 0.25 nM KDM1A/CoREST, 50 nM H3K4 monomethylated peptide, 20 min at RT, read-out: IC50, KDM1A (LSD1) enzyme inhibition

Compound	IC50 [1, 4] [µM]	IC50 [2] [µM]	IC50 [3] [µM]	IC50 [1] [µM]
Cn1c(C(=O)c2cn(CCOc3cccc(OC4CCNCC4)c3)c3ccccc23)cc2sccc21 [Compound 16, (4-methylthieno[3,2-b]pyrrol-5-yl)-[1-[2-[3-(4-piperidyloxy)phenoxy]ethyl]indol-3-yl]methanone hydrochloride]	< 0.5	< 10	< 10	
Cn1c(C(=O)c2cn(CCOc3cccc(OC[C@@H]4CCNC4)c3)c3ccccc23)cc2sccc21 [Compound 14, (4-methylthieno[3,2-b]pyrrol-5-yl)-[1-[2-[3-[[(3R)-pyrrolidin-3-yl]methoxy]phenoxy]ethyl]indol-3-yl]methanone hydrochloride]	< 0.5	< 10	< 10	
Cn1c(C(=O)c2cn(CCCc3ccc(OC[C@@H]4CCNC4)cc3)c3ccccc23)cc2ccsc21 (stereo in doubt) [Compound 29, (6-methylthieno[2,3-b]pyrrol-5-yl)-[1-[3-[4-(pyrrolidin-3-ylmethoxy)phenyl]propyl]indol-3-yl]methanone]	< 0.5			
Cn1c(C(=O)c2cn(CCCc3ccc(OC4CCNCC4)cc3)c3ccccc23)cc2ccsc21 [Compound 30, (6-methylthieno[2,3-b]pyrrol-5-yl)-[1-[3-[4-(4-piperidyloxy)phenyl]propyl]indol-3-yl]methanone]	< 0.5			
Cn1c(C(=O)c2cn(CCOc3ccccc3OCC3CCNC3)c3ccccc23)cc2sccc21 (stereo not shown) [Compound 11, (4-Methylthieno[3,2-b]pyrrol-5-yl)-[1-[2-[2-(pyrrolidin-3-ylmethoxy)phenoxy]ethyl]indol-3-yl]methanone hydrochloride]	< 5	< 10	< 10	
CCn1c(C(=O)c2cn(CCCc3ccc(OC[C@@H]4CCNC4)cc3)c3ccccc23)cc2sccc21 (stereo in doubt) [Compound 28, (4-ethylthieno[3,2-b]pyrrol-5-yl)-[1-[3-[4-(pyrrolidin-3-ylmethoxy)phenyl]propyl]indol-3-yl]methanone hydrochloride]	< 0.5			
Cn1c(C(=O)c2cn(CCCc3ccc(OC4CCNCC4)cc3)c3ccccc23)cc2sccc21 [Compound 24, (4-methylthieno[3,2-b]pyrrol-5-yl)-[1-[3-[4-(4-piperidyloxy)phenyl]propyl]indol-3-yl]methanone hydrochloride]	< 0.5		< 10	
Cn1c(C(=O)c2cn(CCOc3cccc(OC[C@H]4CCNC4)c3)c3ccccc23)cc2sccc21 [Compound 13, (4-methylthieno[3,2-b]pyrrol-5-yl)-[1-[2-[3-[[(3S)-pyrrolidin-3-yl]methoxy]phenoxy]ethyl]indol-3-yl]methanone hydrochloride]	< 0.5	< 10	< 10	
Cn1c(C(=O)c2cn(CCOc3ccc(OCC4CCNCC4)cc3)c3ccccc23)cc2sccc21 [Compound 19, (4-methylthieno[3,2-b]pyrrol-5-yl)-[1-[2-[4-(4-piperidylmethoxy)phenoxy]ethyl]indol-3-yl]methanone hydrochloride]	< 0.5	< 10	< 10	
Cn1c(C(=O)c2c[nH]c3ccccc23)cc2ccsc21 [Compound 6, 1H-indol-3-yl-(6-methylthieno[2,3-b]pyrrol-5-yl)methanone]	< 50			
Cn1c(C(=O)c2cn(CCOc3cccc(O[C@@H]4CCCNCC4)c3)c3ccccc23)cc2sccc21 (stereo in doubt) [Compound 20, [1-[2-[3-(azepan-4-yloxy)phenoxy]ethyl]indol-3-yl]-(4-methylthieno[3,2-b]pyrrol-5-yl)methanone hydrochloride]	< 0.5		< 10	
Cn1c(C(=O)c2cn(CCOc3ccc(OC[C@@H]4CCNC4)cc3)c3ccccc23)cc2sccc21 (stereo in doubt) [Compound 15, (4-methylthieno[3,2-b]pyrrol-5-yl)-[1-[2-[4-(pyrrolidin-3-ylmethoxy)phenoxy]ethyl]indol-3-yl]methanone hydrochloride]	< 0.5	< 10	< 10	
Cn1c(C(=O)c2cn(CCOc3cccc(OCC4CCNCC4)c3)c3ccccc23)cc2sccc21 [Compound 18, (4-methylthieno[3,2-b]pyrrol-5-yl)-[1-[2-[3-(4-piperidylmethoxy)phenoxy]ethyl]indol-3-yl]methanone hydrochloride]	< 0.5	< 10	< 10	
Cn1c(C(=O)c2cn(CCOc3cccc(OCC4CCNC4)c3)c3ccccc23)cc2sccc21 (stereo not shown) [Compound 12, (4-methylthieno[3,2-b]pyrrol-5-yl)-[1-[2-[3-(pyrrolidin-3-ylmethoxy)phenoxy]ethyl]indol-3-yl]methanone]	< 0.5			
Cc1ccc2[nH]cc(C(=O)c3cc4sccc4n3C)c2c1 [Compound 2, (5-methyl-1H-indol-3-yl)-(4-methylthieno[3,2-b]pyrrol-5-yl)methanone]	< 50			
CCn1c(C(=O)c2c[nH]c3ccccc23)cc2sccc21 [Compound 5, (4-ethylthieno[3,2-b]pyrrol-5-yl)-(1H-indol-3-yl)methanone]	< 50			
CCn1c(C(=O)c2cn(CCCc3ccc(OC4CCNCC4)cc3)c3ccccc23)cc2sccc21 [Compound 27, (4-ethylthieno[3,2-b]pyrrol-5-yl)-[1-[3-[4-(4-piperidyloxy)phenyl]propyl]indol-3-yl]methanone hydrochloride]	< 0.5			
Cn1c(C(=O)c2cn(CCCc3ccc(OCC4CCNCC4)c(OCC4CCNCC4)c3)c3ccccc23)cc2sccc21 [Compound 26, [1-[3-[3,4-bis(4-piperidylmethoxy)phenyl]propyl]indol-3-yl]-(4-methylthieno[3,2-b]pyrrol-5-yl)methanone]	< 0.5			
Cn1c(C(=O)c2cn(CCCc3ccc(OC[C@@H]4CCNC4)cc3)c3ccccc23)cc2sccc21 (stereo in doubt) [Compound 22, (4-methylthieno[3,2-b]pyrrol-5-yl)-[1-[3-[4-(pyrrolidin-3-ylmethoxy)phenyl]propyl]indol-3-yl]methanone hydrochloride]	< 0.5		< 10	
Cn1c(C(=O)c2cn(CCCc3ccc(O[C@H]4CCCNCC4)cc3)c3ccccc23)cc2sccc21 (stereo in doubt) [Compound 25, [1-[3-[4-(azepan-4-yloxy)phenyl]propyl]indol-3-yl]-(4-methylthieno[3,2-b]pyrrol-5-yl)methanone hydrochloride]	< 0.5			
Cn1c(C(=O)c2cn(CCCc3ccc(OCC4CCNCC4)cc3)c3ccccc23)cc2sccc21 [Compound 23, (4-methylthieno[3,2-b]pyrrol-5-yl)-[1-[3-[4-(4-piperidylmethoxy)phenyl]propyl]indol-3-yl]methanone hydrochloride]	< 0.5		< 10	
COCCn1cc(C(=O)c2cc3sccc3n2C)c2ccccc21 [Compound 8, [1-(2-Methoxyethyl)indol-3-yl]-(4-methylthieno[3,2-b]pyrrol-5-yl)methanone]				< 50
Cn1c(C(=O)c2c[nH]c3ccccc23)cc2sccc21 [Compound 1, 1H-indol-3-yl-(4-methylthieno[3,2-b]pyrrol-5-yl)methanone]	< 50			
Cn1c(C(=O)c2cn(CCOc3ccc(O[C@H]4CCCNCC4)cc3)c3ccccc23)cc2sccc21 (stereo in doubt) [Compound 21, [1-[2-[4-(azepan-4-yloxy)phenoxy]ethyl]indol-3-yl]-(4-methylthieno[3,2-b]pyrrol-5-yl)methanone hydrochloride]	< 0.5		< 10	
